Data on 5 compounds can be found in patent US7700797B2, “Use of hydrolysis resistant organomodified silylated surfactants” (Momentive Performance Materials Inc., priority 2006, dated 2010).

Data set [1] is described as follows: Spreading of 10 μL droplet on polystyrene Petri dishes. The conditions noted are these: 30 seconds. The class given is physicochemical. Here is the method: Spreading was determined by applying a 10 μL droplet, of surfactant solution to polystyrene Petri dishes (Fisher Scientific) and measuring the spread diameter (mm) after 30 seconds, at a relative humidity between 50 and 70% (at 22 to 25° C.). The solution was applied with an automatic pipette to provide droplets of reproducible volume. Deionized water that was further purified with a Millipore filtration system was used to prepare the surfactant solutions.

Data set [2] in a line: Surface tension, Kruss surface tensiometer. The class given is physicochemical. The conditions noted are these: 0.1 wt % in 0.005M NaCl water. Here is the method: Surface tension was measured using a Kruss surface tensiometer, with a sand blasted platinum blade as the sensor. Solutions of the various components were prepared at 0.1 wt % in 0.005M NaCl water (deionized), as an equilibrium aid.

As for `C[Si](C)(C)C[Si](C)(C)CCCOCCOCCOCCOCCO` [Product 6], the “Spread Diameter” value turned out to be 40 mm in data set [1] (0.05% surfactant), 45 mm in data set [1] (0.1% surfactant), 53 mm in data set [1] (0.3% surfactant) and 47 mm in data set [1] (0.5% surfactant). For the same compound, the “Surface Tension” value in data set [2] is given as 22.5 mN/m.
On to `C[Si](C)(C)C[Si](C)(C)CCCOCCOCCOCCOCCOCCOCCOCCOCCOCCOCCOCCO` [Product 8], for which the “Spread Diameter” value in data set [1] (0.1% surfactant) and in data set [1] (0.5% surfactant) was 7 mm each time. Besides, the “Surface Tension” value in data set [2] amounted to 27.7 mN/m.
For `C[Si](C)(C)CC[Si](C)(C)CCCOCCOCCOCCOCCO` [Product 7], the “Spread Diameter” value in data set [1] (0.05% surfactant) is given as 30 mm; in data set [1] (0.1% surfactant) it was 42 mm; in data set [1] (0.3% surfactant), 48 mm; in data set [1] (0.5% surfactant), 49 mm. The “Surface Tension” value in data set [2] is recorded as 22.7 mN/m.
As for Octylphenolethoxylate [OPE], the results for the “Spread Diameter” value in data set [1] (0.1% surfactant) and in data set [1] (0.5% surfactant) were 9 mm and 10 mm, respectively. Besides, the “Surface Tension” value in data set [2] is listed as 31.8 mN/m.
For `C[Si](C)(C)CC[Si](C)(C)CCCOCCOCCOCCOCCOCCOCCOCCOCCOCCOCCOCCO` [Product 9], the “Spread Diameter” value in data set [1] (0.1% surfactant) and in data set [1] (0.5% surfactant) was 7 mm in each case. For the same compound, the “Surface Tension” value in data set [2] amounted to 26.7 mN/m.
